Results as given in ChEMBL document CHEMBL3045868, “Synthesis and antibacterial activities of para-alkoxy phenyl--ketoaldehyde derivatives” (Med Chem Res, 2013).
In brackets after ≈: the same amount, converted by molar mass.

Columns and labels:
Escherichia coli = assay: Antibacterial activity against Escherichia coli ATCC 25922 assessed as growth inhibition after 16 to 18 hr NCCLS agar dilution method; format: functional
Staphylococcus aureus = assay: Antibacterial activity against Staphylococcus aureus ATCC 25923 assessed as growth inhibition after 16 to 18 hr by NCCLS agar dilution method; format: functional
Pseudomonas aeruginosa = assay: Antibacterial activity against Pseudomonas aeruginosa ATCC 27853 assessed as growth inhibition after 16 to 18 hr NCCLS agar dilution method; format: functional
Helicobacter pylori [1] = assay: Antibacterial activity against Helicobacter pylori 05-3 assessed as growth inhibition after 16 to 18 hr NCCLS agar dilution method; format: functional
Helicobacter pylori [2] = assay: Antibacterial activity against Helicobacter pylori 05-1 assessed as growth inhibition after 16 to 18 hr NCCLS agar dilution method; format: functional
Helicobacter pylori [3] = assay: Antibacterial activity against Helicobacter pylori 06-3 assessed as growth inhibition after 16 to 18 hr NCCLS agar dilution method; format: functional
Helicobacter pylori [4] = assay: Antibacterial activity against Helicobacter pylori 05-5 assessed as growth inhibition after 16 to 18 hr NCCLS agar dilution method; format: functional
Helicobacter pylori [5] = assay: Antibacterial activity against Helicobacter pylori 06-2 assessed as growth inhibition after 16 to 18 hr NCCLS agar dilution method; format: functional
Helicobacter pylori [6] = assay: Antibacterial activity against Helicobacter pylori 06-5 assessed as growth inhibition after 16 to 18 hr NCCLS agar dilution method; format: functional
Helicobacter pylori [7] = assay: Antibacterial activity against Helicobacter pylori 05-9 assessed as growth inhibition after 16 to 18 hr NCCLS agar dilution method; format: functional
Helicobacter pylori [8] = assay: Antibacterial activity against Helicobacter pylori 06-6 assessed as growth inhibition after 16 to 18 hr NCCLS agar dilution method; format: functional
Helicobacter pylori [9] = assay: Antibacterial activity against Helicobacter pylori 05-12 assessed as growth inhibition after 16 to 18 hr NCCLS agar dilution method; format: functional
Helicobacter pylori [10] = assay: Antibacterial activity against Helicobacter pylori ATCC 11637 assessed as growth inhibition after 16 to 18 hr NCCLS agar dilution method; format: functional
Helicobacter pylori [11] = assay: Antibacterial activity against Helicobacter pylori 06-1 assessed as growth inhibition after 16 to 18 hr NCCLS agar dilution method; format: functional
Helicobacter pylori [12] = assay: Antibacterial activity against Helicobacter pylori assessed as growth inhibition after 16 to 18 hr NCCLS agar dilution method; format: functional
Helicobacter pylori [13] = assay: Antibacterial activity against Helicobacter pylori 05-2 assessed as growth inhibition after 16 to 18 hr NCCLS agar dilution method; format: functional
Helicobacter pylori [14] = assay: Antibacterial activity against Helicobacter pylori 06-8 assessed as growth inhibition after 16 to 18 hr NCCLS agar dilution method; format: functional
Helicobacter pylori [15] = assay: Antibacterial activity against Helicobacter pylori 05-14 assessed as growth inhibition after 16 to 18 hr NCCLS agar dilution method; format: functional
Helicobacter pylori [16] = assay: Antibacterial activity against Helicobacter pylori 05-4 assessed as growth inhibition after 16 to 18 hr NCCLS agar dilution method; format: functional, 05-Apr
Helicobacter pylori [17] = assay: Antibacterial activity against Helicobacter pylori 06-4 assessed as growth inhibition after 16 to 18 hr NCCLS agar dilution method; format: functional
Helicobacter pylori [18] = assay: Antibacterial activity against Helicobacter pylori 06-7 assessed as growth inhibition after 16 to 18 hr NCCLS agar dilution method; format: functional

Row | Compound | MIC (Escherichia coli) [µg/mL] | MIC (Staphylococcus aureus) [µg/mL] | MIC (Pseudomonas aeruginosa) [µg/mL] | MIC (Helicobacter pylori [1]) [µg/mL] | MIC (Helicobacter pylori [2]) [µg/mL] | MIC (Helicobacter pylori [3]) [µg/mL] | MIC (Helicobacter pylori [4]) [µg/mL] | MIC (Helicobacter pylori [5]) [µg/mL] | MIC (Helicobacter pylori [6]) [µg/mL] | MIC (Helicobacter pylori [7]) [µg/mL] | MIC (Helicobacter pylori [8]) [µg/mL] | MIC (Helicobacter pylori [9]) [µg/mL] | MIC (Helicobacter pylori [10]) [µg/mL] | MIC (Helicobacter pylori [11]) [µg/mL] | MIC50 (Helicobacter pylori [12]) [µg/mL] | MIC90 (Helicobacter pylori [12]) [µg/mL] | MIC (Helicobacter pylori [13]) [µg/mL] | MIC (Helicobacter pylori [14]) [µg/mL] | MIC (Helicobacter pylori [15]) [µg/mL] | MIC (Helicobacter pylori [16]) [µg/mL] | also measured
1 | CCO/N=C/CC(=O)c1ccc(OC)cc1 | > 64 | 4 (≈ 18.1 µM) | > 64 | – | – | – | – | – | – | – | – | – | – | – | – | – | – | – | – | – | –
2 | CO/N=C(/C/C=N/OC)c1ccc(OC)cc1 | > 64 | > 64 | > 64 | – | – | – | – | – | – | – | – | – | – | – | – | – | – | – | – | – | –
3 | CCO/N=C(/C/C=N/OCC)c1ccc(OC)cc1 | > 64 | > 64 | > 64 | – | – | – | – | – | – | – | – | – | – | – | – | – | – | – | – | – | –
4 | COc1ccc(C(=O)C/C=N/NC(N)=O)cc1 | > 64 | > 64 | > 64 | > 128 | > 128 | > 128 | > 128 | > 128 | > 128 | > 128 | 128 (≈ 544 µM) | > 128 | > 128 | > 128 | > 128 | > 128 | > 128 | > 128 | > 128 | > 128 | MIC (Helicobacter pylori [17]): > 128 µg/mL; MIC (Helicobacter pylori [18]): 128 µg/mL (≈ 544 µM)
5 | COc1ccc(C(=O)C/C=N/NC(N)=S)cc1 | > 64 | > 64 | > 64 | > 128 | > 128 | > 128 | > 128 | > 128 | > 128 | > 128 | 128 (≈ 509 µM) | > 128 | > 128 | > 128 | > 128 | > 128 | > 128 | > 128 | > 128 | > 128 | MIC (Helicobacter pylori [17]): > 128 µg/mL; MIC (Helicobacter pylori [18]): 128 µg/mL (≈ 509 µM)
6 | CCOc1ccc(C(=O)C/C=N/OC)cc1 | > 64 | 32 (≈ 145 µM) | > 64 | – | – | – | – | – | – | – | – | – | – | – | – | – | – | – | – | – | –
7 | CCO/N=C/CC(=O)c1ccc(OCC)cc1 | > 64 | 64 (≈ 272 µM) | > 64 | – | – | – | – | – | – | – | – | – | – | – | – | – | – | – | – | – | –
8 | CCOc1ccc(/C(C/C=N/OC)=N\OC)cc1 | > 64 | > 64 | > 64 | – | – | – | – | – | – | – | – | – | – | – | – | – | – | – | – | – | –
9 | CCO/N=C(/C/C=N/OCC)c1ccc(OCC)cc1 | > 64 | > 64 | > 64 | – | – | – | – | – | – | – | – | – | – | – | – | – | – | – | – | – | –
10 | CO/N=C/CC(=O)c1ccc(OC(C)C)cc1 | > 64 | > 64 | > 64 | – | – | – | – | – | – | – | – | – | – | – | – | – | – | – | – | – | –
11 | CCO/N=C/CC(=O)c1ccc(OC(C)C)cc1 | > 64 | > 64 | > 64 | – | – | – | – | – | – | – | – | – | – | – | – | – | – | – | – | – | –
12 | CO/N=C(/C/C=N/OC)c1ccc(OC(C)C)cc1 | > 64 | > 64 | > 64 | – | – | – | – | – | – | – | – | – | – | – | – | – | – | – | – | – | –
13 | CCO/N=C(/C/C=N/OCC)c1ccc(OC(C)C)cc1 | > 64 | > 64 | > 64 | – | – | – | – | – | – | – | – | – | – | – | – | – | – | – | – | – | –
14 | CCCCOc1ccc(C(=O)C/C=N/OC)cc1 | > 64 | > 64 | 64 (≈ 257 µM) | – | – | – | – | – | – | – | – | – | – | – | – | – | – | – | – | – | –
15 | CCCCOc1ccc(C(=O)C/C=N/OCC)cc1 | > 64 | > 64 | > 64 | – | – | – | – | – | – | – | – | – | – | – | – | – | – | – | – | – | –
16 | CCCCOc1ccc(/C(C/C=N/OCC)=N\OCC)cc1 | > 64 | > 64 | > 64 | – | – | – | – | – | – | – | – | – | – | – | – | – | – | – | – | – | –
17 | COc1ccc(C(=O)/C=C\O)cc1 | > 64 | > 64 | > 64 | > 128 | > 128 | > 128 | > 128 | > 128 | 128 (≈ 718 µM) | > 128 | 128 (≈ 718 µM) | > 128 | 128 (≈ 718 µM) | > 128 | > 128 | > 128 | > 128 | > 128 | > 128 | > 128 | MIC (Helicobacter pylori [17]): 128 µg/mL (≈ 718 µM); MIC (Helicobacter pylori [18]): 128 µg/mL (≈ 718 µM)
18 | COc1ccc(C(=O)CC(O)S(=O)(=O)[O-])cc1.[Na+] (stereo unspecified) | > 64 | > 64 | > 64 | > 128 | > 128 | > 128 | > 128 | > 128 | > 128 | > 128 | > 128 | > 128 | > 128 | > 128 | > 128 | > 128 | > 128 | > 128 | > 128 | > 128 | MIC (Helicobacter pylori [17]): > 128 µg/mL; MIC (Helicobacter pylori [18]): > 128 µg/mL
19 | COc1ccc(C(=O)C/C=N/O)cc1 | > 64 | 4 (≈ 20.7 µM) | > 64 | > 128 | > 128 | 64 (≈ 331 µM) | > 128 | > 128 | 64 (≈ 331 µM) | > 128 | 64 (≈ 331 µM) | > 128 | 64 (≈ 331 µM) | 64 (≈ 331 µM) | > 128 | > 128 | > 128 | > 128 | > 128 | > 128 | MIC (Helicobacter pylori [17]): > 128 µg/mL; MIC (Helicobacter pylori [18]): 64 µg/mL (≈ 331 µM)
20 | Cc1ncc([N+](=O)[O-])n1CCO [METRONIDAZOLE] | – | – | – | > 128 | > 128 | > 128 | > 128 | > 128 | > 128 | > 128 | > 128 | > 128 | 32 (≈ 187 µM) | > 128 | > 128 | > 128 | > 128 | > 128 | > 128 | > 128 | MIC (Helicobacter pylori [17]): > 128 µg/mL; MIC (Helicobacter pylori [18]): > 128 µg/mL
